The text below walks through data of patent publication US12479847B2 (DANA-FARBER CANCER INSTITUTE, INC., priority 2019, dated 2025).

Holding throughout (assay): KINOMEscan (ScanMAX) kinase profiling
Holding throughout (format): binding

For test [1], the target named is T1, panel of 468 kinases (Homo sapiens, UniProt Q16512).
T1 construct: purchased KINOMEscan (ScanMAX) service
Conditions: PKN1; 1 μM; read-out: % control.

Test [2] has as its target T2, panel of 468 kinases (Homo sapiens, UniProt P00533, L861Q).
T2 construct: purchased KINOMEscan (ScanMAX) service
Conditions: EGFR(L861Q); 1 μM; read-out: % control.

Test [3] concerns the target T3, panel of 468 kinases (Plasmodium falciparum, UniProt P61075).
T3 construct: purchased KINOMEscan (ScanMAX) service
Conditions: PFPK5(P.falciparum); 1 μM; read-out: % control.

In test [4] the target is T4, panel of 468 kinases (Homo sapiens, UniProt Q9Y243).
T4 construct: purchased KINOMEscan (ScanMAX) service
T4 sequence (Q9Y243 whole entry): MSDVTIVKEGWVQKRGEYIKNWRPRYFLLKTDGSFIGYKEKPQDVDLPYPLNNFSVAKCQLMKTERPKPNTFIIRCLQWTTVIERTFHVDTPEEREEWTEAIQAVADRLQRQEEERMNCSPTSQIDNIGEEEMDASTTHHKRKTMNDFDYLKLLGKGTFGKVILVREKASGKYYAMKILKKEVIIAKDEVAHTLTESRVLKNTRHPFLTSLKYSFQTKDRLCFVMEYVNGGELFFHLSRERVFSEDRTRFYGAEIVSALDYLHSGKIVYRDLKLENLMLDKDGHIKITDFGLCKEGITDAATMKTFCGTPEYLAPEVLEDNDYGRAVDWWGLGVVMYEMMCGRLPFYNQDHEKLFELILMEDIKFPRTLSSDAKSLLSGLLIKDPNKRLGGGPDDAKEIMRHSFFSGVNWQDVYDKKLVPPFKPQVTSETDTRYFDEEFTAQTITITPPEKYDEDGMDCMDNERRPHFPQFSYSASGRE
Conditions: AKT3; 1 μM; read-out: % control.

Test [5] addresses T5, panel of 468 kinases (Homo sapiens, UniProt Q00526).
T5 construct: purchased KINOMEscan (ScanMAX) service
Conditions: CDK3; 1 μM; read-out: % control.

Test [6] deals with T6, panel of 468 kinases (Homo sapiens, UniProt Q99640).
T6 construct: purchased KINOMEscan (ScanMAX) service
T6 sequence (Q99640 1-499): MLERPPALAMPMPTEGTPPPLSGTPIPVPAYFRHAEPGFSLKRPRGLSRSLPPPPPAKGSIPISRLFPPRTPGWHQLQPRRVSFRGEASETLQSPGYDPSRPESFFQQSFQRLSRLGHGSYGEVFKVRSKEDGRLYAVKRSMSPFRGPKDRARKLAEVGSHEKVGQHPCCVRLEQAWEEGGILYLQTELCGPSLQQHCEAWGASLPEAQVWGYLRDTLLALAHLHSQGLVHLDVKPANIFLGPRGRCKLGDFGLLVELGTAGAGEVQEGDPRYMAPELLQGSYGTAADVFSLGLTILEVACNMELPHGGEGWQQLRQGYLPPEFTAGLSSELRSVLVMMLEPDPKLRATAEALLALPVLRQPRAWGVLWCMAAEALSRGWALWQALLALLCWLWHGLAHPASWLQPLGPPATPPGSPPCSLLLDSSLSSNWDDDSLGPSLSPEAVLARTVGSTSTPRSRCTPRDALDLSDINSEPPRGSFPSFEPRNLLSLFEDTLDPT
Conditions: PKMYT1; 1 μM; read-out: % control.

The target of test [7] is T7, panel of 468 kinases (Homo sapiens, UniProt Q9UM73, C1156Y).
T7 construct: purchased KINOMEscan (ScanMAX) service
T7 sequence (Q9UM73 19-1620 C1156Y): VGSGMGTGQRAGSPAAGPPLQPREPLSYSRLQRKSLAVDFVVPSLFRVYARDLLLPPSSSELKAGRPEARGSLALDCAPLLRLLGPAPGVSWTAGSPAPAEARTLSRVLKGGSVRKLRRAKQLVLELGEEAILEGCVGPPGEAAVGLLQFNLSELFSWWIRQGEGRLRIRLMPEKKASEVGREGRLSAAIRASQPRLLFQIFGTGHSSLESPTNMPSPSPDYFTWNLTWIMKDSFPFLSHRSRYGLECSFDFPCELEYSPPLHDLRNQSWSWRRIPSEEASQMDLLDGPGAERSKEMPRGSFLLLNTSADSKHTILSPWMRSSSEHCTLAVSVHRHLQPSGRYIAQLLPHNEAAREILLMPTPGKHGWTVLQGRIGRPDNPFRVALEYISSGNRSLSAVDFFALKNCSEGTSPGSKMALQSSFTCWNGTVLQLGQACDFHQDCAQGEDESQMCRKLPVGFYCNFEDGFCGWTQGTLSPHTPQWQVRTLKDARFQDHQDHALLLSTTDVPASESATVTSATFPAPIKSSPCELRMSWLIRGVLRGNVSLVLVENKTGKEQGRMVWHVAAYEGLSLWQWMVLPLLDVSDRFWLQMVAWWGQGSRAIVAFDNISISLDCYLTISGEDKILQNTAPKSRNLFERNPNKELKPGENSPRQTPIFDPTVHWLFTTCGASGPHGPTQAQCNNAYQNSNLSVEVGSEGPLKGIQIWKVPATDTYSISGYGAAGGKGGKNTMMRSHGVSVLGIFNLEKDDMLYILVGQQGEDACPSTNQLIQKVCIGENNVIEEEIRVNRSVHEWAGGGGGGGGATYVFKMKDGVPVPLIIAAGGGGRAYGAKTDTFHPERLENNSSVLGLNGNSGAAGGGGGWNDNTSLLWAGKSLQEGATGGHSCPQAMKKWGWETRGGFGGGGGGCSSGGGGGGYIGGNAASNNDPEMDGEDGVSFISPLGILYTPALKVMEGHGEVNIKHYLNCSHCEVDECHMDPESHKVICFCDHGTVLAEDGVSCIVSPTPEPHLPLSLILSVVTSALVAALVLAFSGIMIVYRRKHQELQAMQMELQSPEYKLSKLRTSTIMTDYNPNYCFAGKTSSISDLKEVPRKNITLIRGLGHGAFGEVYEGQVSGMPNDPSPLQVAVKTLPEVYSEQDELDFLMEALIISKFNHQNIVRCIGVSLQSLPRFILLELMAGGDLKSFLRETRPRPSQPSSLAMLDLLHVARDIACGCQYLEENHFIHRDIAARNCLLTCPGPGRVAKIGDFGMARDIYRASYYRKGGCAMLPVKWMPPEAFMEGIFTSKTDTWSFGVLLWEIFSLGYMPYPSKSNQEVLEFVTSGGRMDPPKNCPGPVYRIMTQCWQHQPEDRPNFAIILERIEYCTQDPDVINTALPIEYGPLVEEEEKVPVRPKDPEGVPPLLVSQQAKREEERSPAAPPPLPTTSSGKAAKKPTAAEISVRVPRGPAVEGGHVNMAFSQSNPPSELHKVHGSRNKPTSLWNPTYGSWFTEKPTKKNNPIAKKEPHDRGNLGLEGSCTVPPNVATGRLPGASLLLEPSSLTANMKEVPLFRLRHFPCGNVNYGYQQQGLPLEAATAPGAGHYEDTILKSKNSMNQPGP
Conditions: ALK(C1156Y); 1 μM; read-out: % control.

Test [8] addresses T8, panel of 468 kinases (Homo sapiens, UniProt P29322).
T8 construct: purchased KINOMEscan (ScanMAX) service
T8 sequence (P29322 28-1005): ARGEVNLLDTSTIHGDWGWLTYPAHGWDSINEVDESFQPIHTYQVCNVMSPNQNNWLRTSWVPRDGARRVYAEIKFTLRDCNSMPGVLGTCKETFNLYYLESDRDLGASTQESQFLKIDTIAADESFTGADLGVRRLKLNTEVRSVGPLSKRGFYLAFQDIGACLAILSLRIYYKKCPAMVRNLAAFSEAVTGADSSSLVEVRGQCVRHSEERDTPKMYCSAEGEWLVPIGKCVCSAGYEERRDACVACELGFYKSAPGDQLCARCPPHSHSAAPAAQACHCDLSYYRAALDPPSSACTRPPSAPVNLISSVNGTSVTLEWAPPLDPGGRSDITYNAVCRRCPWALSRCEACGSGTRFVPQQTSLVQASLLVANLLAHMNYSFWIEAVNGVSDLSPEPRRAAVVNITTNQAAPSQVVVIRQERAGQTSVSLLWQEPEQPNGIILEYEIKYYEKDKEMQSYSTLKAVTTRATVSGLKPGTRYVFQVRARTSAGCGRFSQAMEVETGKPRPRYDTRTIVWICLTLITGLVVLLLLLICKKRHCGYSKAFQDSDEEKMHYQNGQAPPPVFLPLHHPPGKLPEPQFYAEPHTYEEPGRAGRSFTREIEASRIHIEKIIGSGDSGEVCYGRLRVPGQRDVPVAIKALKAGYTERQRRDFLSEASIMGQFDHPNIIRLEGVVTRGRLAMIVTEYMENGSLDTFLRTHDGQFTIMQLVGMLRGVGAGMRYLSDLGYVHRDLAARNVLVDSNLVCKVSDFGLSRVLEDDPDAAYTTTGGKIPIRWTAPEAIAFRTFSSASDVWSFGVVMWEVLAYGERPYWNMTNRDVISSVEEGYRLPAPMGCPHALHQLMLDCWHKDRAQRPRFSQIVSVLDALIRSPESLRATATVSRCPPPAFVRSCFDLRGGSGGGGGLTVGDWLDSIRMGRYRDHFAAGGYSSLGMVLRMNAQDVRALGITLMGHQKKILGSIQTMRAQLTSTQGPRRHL
Conditions: EPHA8; 1 μM; read-out: % control.

T5 sequence (Q00526 whole entry): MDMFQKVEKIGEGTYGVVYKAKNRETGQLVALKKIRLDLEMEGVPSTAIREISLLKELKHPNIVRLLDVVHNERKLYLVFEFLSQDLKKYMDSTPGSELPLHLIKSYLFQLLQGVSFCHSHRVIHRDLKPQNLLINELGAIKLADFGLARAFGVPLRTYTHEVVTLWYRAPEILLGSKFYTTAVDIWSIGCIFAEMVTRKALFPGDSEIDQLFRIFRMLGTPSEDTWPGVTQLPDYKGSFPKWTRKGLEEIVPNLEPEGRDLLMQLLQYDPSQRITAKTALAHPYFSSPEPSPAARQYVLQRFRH
T3 sequence (P61075 whole entry): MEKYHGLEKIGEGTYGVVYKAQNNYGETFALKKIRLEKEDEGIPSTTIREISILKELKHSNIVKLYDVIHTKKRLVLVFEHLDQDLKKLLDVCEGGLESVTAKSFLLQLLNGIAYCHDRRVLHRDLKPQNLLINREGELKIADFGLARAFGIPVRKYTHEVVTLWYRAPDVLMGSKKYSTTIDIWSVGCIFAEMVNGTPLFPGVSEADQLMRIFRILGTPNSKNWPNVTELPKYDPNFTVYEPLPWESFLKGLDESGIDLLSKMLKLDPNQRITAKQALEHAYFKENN
T1 sequence (Q16512 whole entry): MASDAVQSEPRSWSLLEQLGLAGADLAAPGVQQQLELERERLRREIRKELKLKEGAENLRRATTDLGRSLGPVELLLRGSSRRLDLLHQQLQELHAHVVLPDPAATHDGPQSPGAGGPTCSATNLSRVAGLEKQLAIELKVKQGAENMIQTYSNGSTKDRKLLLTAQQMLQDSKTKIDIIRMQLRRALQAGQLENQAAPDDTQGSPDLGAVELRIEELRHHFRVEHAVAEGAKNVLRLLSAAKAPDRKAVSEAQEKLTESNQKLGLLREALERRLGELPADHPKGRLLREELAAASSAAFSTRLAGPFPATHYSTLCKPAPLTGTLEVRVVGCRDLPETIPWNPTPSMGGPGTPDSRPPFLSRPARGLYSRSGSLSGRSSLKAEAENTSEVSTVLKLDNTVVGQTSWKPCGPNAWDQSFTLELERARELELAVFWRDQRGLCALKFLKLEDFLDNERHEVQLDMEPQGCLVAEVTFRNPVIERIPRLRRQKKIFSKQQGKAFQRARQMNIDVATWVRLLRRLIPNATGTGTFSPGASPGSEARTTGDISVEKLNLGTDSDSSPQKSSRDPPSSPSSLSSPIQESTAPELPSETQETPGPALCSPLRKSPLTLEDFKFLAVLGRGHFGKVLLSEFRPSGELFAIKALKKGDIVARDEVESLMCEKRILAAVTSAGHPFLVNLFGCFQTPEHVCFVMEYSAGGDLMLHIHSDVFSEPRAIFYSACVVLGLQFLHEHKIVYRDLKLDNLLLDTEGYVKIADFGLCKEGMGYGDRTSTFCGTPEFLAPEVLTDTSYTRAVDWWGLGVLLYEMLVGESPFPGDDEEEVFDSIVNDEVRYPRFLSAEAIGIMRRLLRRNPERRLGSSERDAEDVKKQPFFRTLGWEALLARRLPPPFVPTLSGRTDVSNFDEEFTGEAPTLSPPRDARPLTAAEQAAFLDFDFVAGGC
T2 sequence (P00533 25-1210 L861Q): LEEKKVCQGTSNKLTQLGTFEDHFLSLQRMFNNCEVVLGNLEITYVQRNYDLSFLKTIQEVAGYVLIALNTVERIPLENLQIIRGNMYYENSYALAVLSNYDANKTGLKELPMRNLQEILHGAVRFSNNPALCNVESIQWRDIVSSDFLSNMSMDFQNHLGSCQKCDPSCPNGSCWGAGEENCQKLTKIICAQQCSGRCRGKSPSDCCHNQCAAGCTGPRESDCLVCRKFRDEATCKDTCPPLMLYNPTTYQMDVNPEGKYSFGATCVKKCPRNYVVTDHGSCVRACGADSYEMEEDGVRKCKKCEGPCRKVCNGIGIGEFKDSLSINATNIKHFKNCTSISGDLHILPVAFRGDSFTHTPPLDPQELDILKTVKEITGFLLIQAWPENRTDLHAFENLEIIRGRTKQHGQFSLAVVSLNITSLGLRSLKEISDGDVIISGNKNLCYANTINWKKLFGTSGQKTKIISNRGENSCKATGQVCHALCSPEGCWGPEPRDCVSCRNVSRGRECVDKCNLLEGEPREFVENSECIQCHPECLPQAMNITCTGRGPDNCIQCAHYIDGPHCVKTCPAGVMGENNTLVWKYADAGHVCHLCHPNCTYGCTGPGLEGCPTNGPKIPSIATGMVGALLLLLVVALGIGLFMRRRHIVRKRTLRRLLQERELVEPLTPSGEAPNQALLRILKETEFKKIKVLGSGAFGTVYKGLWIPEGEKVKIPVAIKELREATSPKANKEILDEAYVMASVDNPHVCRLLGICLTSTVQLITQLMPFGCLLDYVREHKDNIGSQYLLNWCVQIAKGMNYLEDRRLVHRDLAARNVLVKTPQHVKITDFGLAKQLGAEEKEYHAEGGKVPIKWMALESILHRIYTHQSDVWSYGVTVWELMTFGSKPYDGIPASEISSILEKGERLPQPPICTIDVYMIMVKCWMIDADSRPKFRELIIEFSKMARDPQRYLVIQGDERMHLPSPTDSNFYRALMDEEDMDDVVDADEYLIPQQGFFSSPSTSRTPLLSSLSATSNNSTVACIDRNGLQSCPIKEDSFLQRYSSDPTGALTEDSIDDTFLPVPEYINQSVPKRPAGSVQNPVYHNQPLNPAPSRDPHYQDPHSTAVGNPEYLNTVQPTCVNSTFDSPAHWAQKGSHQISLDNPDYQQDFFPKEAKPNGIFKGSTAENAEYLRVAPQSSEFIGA

For the molecule `CNc1nc(Nc2ccc(S(=O)(=O)N3CCC(N4CCOCC4)CC3)cc2OC)nc2[nH]cc(Cl)c12` [Compound 12, 5-chloro-N2-(2-methoxy-4-((4-morpholinopiperidin-1-yl)sulfonyl)phenyl)-N4-methyl-7H-pyrrolo[2,3-d]pyrimidine-2,4-diamine], the remaining binding at 1 µM on panel of 468 kinases [1] was 100%; on panel of 468 kinases [2], 100%; on panel of 468 kinases [3] it was 64%; at panel of 468 kinases [4], 100%; at panel of 468 kinases [5], 86%; at panel of 468 kinases [6] it was 100%. The remaining binding at 1 µM was determined as 2.7% at panel of 468 kinases [7] and 100% on panel of 468 kinases [8].

As to `CNc1nc(Nc2ccc(P3(=O)CCN(C4CCOCC4)CC3)cc2OC)nc2[nH]cc(Cl)c12` [Compound 77, 4-(4-((5-chloro-4-(methylamino)-7H-pyrrolo[2,3-d]pyrimidin-2-yl)amino)-3-methoxyphenyl)-1-(tetrahydro-2H-pyran-4-yl)-1,4-azaphosphinane 4-oxide], the remaining binding at 1 µM on panel of 468 kinases [1] is 99%; at panel of 468 kinases [2] it was 100%; at panel of 468 kinases [3], 75%; at panel of 468 kinases [4] it was 100%; at panel of 468 kinases [5], 95%; on panel of 468 kinases [6], 100%. Also, the results for the remaining binding at 1 µM on panel of 468 kinases [7] and at panel of 468 kinases [8] were 1.3% and 100%, respectively.

As for `CNc1nc(Nc2ccc(C(=O)N3CCC(N4CCOCC4)CC3)c3c2OCO3)nc2[nH]cc(Cl)c12` [Compound 75, (7-((5-chloro-4-(methylamino)-7H-pyrrolo[2,3-d]pyrimidin-2-yl)amino)benzo[d][1,3]dioxol-4-yl)(4-morpholinopiperidin-1-yl)methanone], the remaining binding at 1 µM on panel of 468 kinases [1] was found to be 98%; at panel of 468 kinases [2], 100%; at panel of 468 kinases [3], 65%; on panel of 468 kinases [4], 100%; at panel of 468 kinases [5] it was 98%; on panel of 468 kinases [6], 100%. Also, the remaining binding at 1 µM on panel of 468 kinases [7] was found to be 1.2%; on panel of 468 kinases [8], 100%.
